From US8278278B2, “Cell proliferation reducing cancer specific PCNA peptides” (Indiana University Research and Technology Corporation, priority 2008, dated 2012)
pIC50: −log10 of the molar value. “Also recorded” adds a separate entry of the source. Read-outs that look alike come from different tables or passages of the source. Non-standard residues stand in square brackets, D forms with d. Residues, ends and D or L forms follow the SMILES beside them. No end group written: not given here. *: point of attachment. FITC = O=C1OC2(c3ccc(O)cc3Oc3cc(O)ccc32)c2ccc(NC(=S)*)cc21

Assays:
MCF 7 (breast cancer) = assay: Cell death by flow cytometry in malignant breast cells; format: cell-based; settings: 50 μM, 48 hours
Method: The R9-caPeptide was evaluated for cytotoxic effects in non-malignant (MCF 10A) and malignant (MCF 7) breast cells (Table 6). The cells were treated with 50 μM R9-caPeptide for 48 hours and the extent of cell death was evaluated by flow cytometry. […] The significant level of cytotoxicity in breast cancer cells is likely due to enhanced binding interaction of caPeptide with specific DNA repair proteins in these cells, as indicated for example by the observed preferential binding of caPCNA for XPG protein, leading to an inhibition of DNA repair in these cells, and ultimately cell death.

[1] = tested on: U937 monocytic lymphoma cells; assay: Cytotoxicity/apoptosis of R9-linked caPCNA peptides in U937 cells by flow cytometry; format: cell-based; settings: 24 hours; for cytotoxic activity / apoptosis: R9 up to 100 μM, caPeptide up to 200 μM; for % cancer cell death: 30 μM of peptide, flow cytometry
Method: First, it was tested whether or not the R9 sequence alone had any cytotoxic effect in U937 cells. The U937 cells were treated with up to 100 μM of the R9 sequence for 24 hours.
Once it was established that the R9 sequence promoted cellular uptake of the peptide, increasing amounts of R9-caPep were added to U937 cells to determine if the peptide's uptake would have any cytotoxic effect.
To verify that the cytotoxicity of the R9-caPep was due to the PCNA peptide sequence itself, a scrambled peptide using the same eight amino acids, R9-Scrambled, was prepared (Table 3).
The cancer associated epitope of PCNA is also part of the flexible IDCL region of PCNA. This region of PCNA is considered to have a disordered structure. Disordered regions in proteins are usually associated with protein-to-protein interaction sites. […] To determine which amino acids in the R9-caPep sequence are necessary for binding of the peptide to these proteins, peptide constructs were generated that mutated each amino acid individually to an alanine (Table 3). Each alanine mutant peptide of caPCNA was used to treat U937 cells for 24 hours. An amino acid that is important to protein binding would presumably show decreased cell cytotoxicity when it is substituted with an alanine. Those amino acids which are not critical for binding could be anticipated to show a cytotoxic level similar to that of the unsubstituted peptide. For a comparison of the potential cytotoxic effect of each of the alanine substituted R9-linked caPeptides, U937 cells were treated with 30 μM of peptide. […] It was observed that peptides containing an alanine substituted at position aa126 or aa133 show little cytotoxic activity and therefore were likely important for the peptide's activity.

[2] = tested on: HCC1937+wild-type BRCA1 cells; assay: MTT growth inhibition assay, HCC1937+wild-type BRCA1 cells; format: cell-based
Method: As a genetically matched control, wild-type BRCA1 has been transduced into HCC1937 cells (referred to as HCC1937+wild-type BRCA1). HCC1937+wild-type BRCA1 cells were selected for maintenance of the vector using 1 μg/mL puromycin. All cells in these assays were used at passage numbers <25.
MTT [3-(4,5-dimethylthiazol-2-yl)-2,5-diphenyltetrazolium bromide] assays were conducted with caPeptides at a variety of time points both alone and in combination with a DNA damaging agent e.g., cisplatin in HCC1937 and HCC1937+wild-type BRCA1 cells. […] The color can then be quantified using a simple colorimetric assay. The results are read on a multiwall scanning spectrophotometer (ELISA reader). […]
MTT assays: The efficacy of caPeptides were tested using the MTT assays: HCC1937 and HCC137+wildtype BRCA1 cells were grown in DMEM 1× (supplemented with 10% fetal bovine serum and 5% penicillin/streptomycin) and were plated at a densities of 5.5×10^3 or 7×10^3, respectively, in 96 well plates (100 μL total volume per well) and allowed to attach overnight in a 37° C. incubator (5% CO2). […] Plates were rocked at room temperature for five minutes to dissolve crystals and transferred to an ELISA plate reader. Absorbance was measured at 550 nm. […]

[3] = tested on: HCC1937 cells lacking BRCA1; assay: MTT growth inhibition assay, HCC1937 cells lacking BRCA1; format: cell-based; settings: for efficacy in MTT assay compared with the other peptides: HCC1937 and HCC1937+wild-type BRCA1 cells, 24 hours
Method: MTT [3-(4,5-dimethylthiazol-2-yl)-2,5-diphenyltetrazolium bromide] assays were conducted with caPeptides at a variety of time points both alone and in combination with a DNA damaging agent e.g., cisplatin in HCC1937 and HCC1937+wild-type BRCA1 cells. The MTT assay is based on the ability of a mitochondrial dehydrogenase enzyme from viable cells to cleave the tetrazolium rings of the pale yellow MTT dye and form dark blue formazan crystals. These formazan crystals are largely impermeable to cell membranes and thus accumulate within healthy cells. Solubilization of the cells by the addition of a detergent results in the liberation and solubilization of the crystals. The number of proliferating cells is directly proportional to the level of formazan product created. The color can then be quantified using a simple colorimetric assay. The results are read on a multiwall scanning spectrophotometer (ELISA reader). The peptides used in these experiments including caPeptide, Q131A ([…] (SEQ ID NO: 5)), and P129A ([…] (SEQ ID NO: 3)) were ordered and obtained from Anaspec (Fremont, Calif.). caPeptide was dissolved in sterile 1× PBS solution to create a 1.5 mM stock concentration. caPeptides with alanine substitutions (e.g., P129A (SEQ ID NO: 3) and Q131A (SEQ ID NO: 5)) were dissolved in sterile 1×PBS solution to create 1.0 mM stock solutions.
MTT assays: The efficacy of caPeptides were tested using the MTT assays: HCC1937 and HCC137+wildtype BRCA1 cells were grown in DMEM 1× (supplemented with 10% fetal bovine serum and 5% penicillin/streptomycin) and were plated at a densities of 5.5×10^3 or 7×10^3, respectively, in 96 well plates (100 μL total volume per well) and allowed to attach overnight in a 37° C. incubator (5% CO2). Then, caPeptide stock solution was diluted to final working concentrations in DMEM 1× (10% fetal bovine serum and 5% penicillin/streptomycin) of 150 μM, 100 μM, 75 μM, 50 μM, and 25 μM. Media was removed from cells and replaced with media containing caPeptide at various concentrations (200 μL total volume per well). Cells were cultured with caPeptide-containing media for 24, 48 or 72 hours. At the appropriate treatment timepoint, 20 μL MTT (5 mg/mL in PBS) reagent was added to each well and plates were incubated for an additional 4 hours. Media/dye solution was then aspirated and 200 μL DMSO was added to each well. Plates were rocked at room temperature for five minutes to dissolve crystals and transferred to an ELISA plate reader. Absorbance was measured at 550 nm. The extent to which caPeptides inhibited cell proliferation was calculated as a percentage of the absorbance in each well containing caPeptide relative to wells containing no caPeptide (negative control) for both HCC1937 and HCC1937+wild-type BRCA1 cells. […]

U937 cells [4] = settings: 100 nM of doxorubicin alone
U937 cells [5] = assay: cells; settings: Homo sapiens, U-937, 24 h
U937 cells [6] = assay: Cellular uptake and nuclear localization by fluorescence microscopy; format: cell-based; settings: 10 μM, 24 hours, DAPI overlay
Method: To test cellular uptake and nuclear localization of R9-caPep, an N-terminal fluorescein isothiocyanate (FITC) residue was attached to allow microscopic visualization of the peptide's cellular location. The U937 cells were treated with 10 μM of FITC-R9-caPep for 24 hours. The cells were then collected onto a poly-L-lysine coated slide by cytospin and mounted with a media containing the DNA staining dye 4′-6-Diamidino-2-phenylindole (DAPI), which complexes with double stranded DNA and indicates the location of the nucleus. A Leica DM500 fluorescent microscope was used to visualize the staining.

CC[C@H](C)[C@H](NC(=O)CNC(=O)[C@H](CC(C)C)NC(=O)[C@H](CS)NC(=O)[C@H](CS)NC(=O)[C@@H](CCCNC(=N)N)NC(=O)[C@@H](CCCNC(=N)N)NC(=O)[C@@H](CCCNC(=N)N)NC(=O)[C@@H](CCCNC(=N)N)NC(=O)[C@@H](CCCNC(=N)N)NC(=O)[C@@H](CCCNC(=N)N)NC(=O)[C@@H](CCCNC(=N)N)NC(=O)[C@@H](CCCNC(=N)N)NC(=O)[C@H](N)CCCNC(=N)N)C(=O)N1CCC[C@H]1C(=O)N[C@@H](CCC(=O)O)C(=O)N[C@@H](CCC(N)=O)C(=O)N[C@@H](CCC(=O)O)C(=O)N[C@@H](Cc1ccc(O)cc1)C(=O)O [R9-caPep]
cytotoxicity for malignant breast cells (MCF7) relative to non-malignant breast cells (MCF10A) (MCF 7 (breast cancer)): approximately five times more cytotoxic

CC[C@H](C)[C@H](NC(=O)CNC(=O)[C@@H](N)CC(C)C)C(=O)N1CCC[C@H]1C(=O)N[C@@H](CCC(=O)O)C(=O)N[C@@H](CCC(N)=O)C(=O)N[C@@H](CCC(=O)O)C(=O)N[C@@H](Cc1ccc(O)cc1)C(=O)O [caPeptide] (H-LGIPEQEY-OH)
cytotoxic activity / apoptosis [1]: did not have any cytotoxic activity; also recorded: no increase in apoptosis

N.N.[Cl][Pt][Cl] [cisplatin, reference compound]
sensitivity of the cells to cisplatin ([2]; HCC1937+wild-type BRCA1 cells, cisplatin alone): relatively resistant
pIC50 ([2]; HCC1937 cells with BRCA1, with R9-PCNA peptide 60 μM, read-out: IC50 value for R9-PCNA peptide (60 μM)+cisplatin): ~4.00
pIC50 ([3]; HCC1937 cells lacking BRCA1, with R9-PCNA peptide 60 μM, read-out: IC50 value for R9-PCNA peptide (60 μM)+cisplatin): ~4.70
sensitivity of the cells to cisplatin ([3]; HCC1937 cells, cisplatin alone): relatively resistant

COc1cccc2c1C(=O)c1c(O)c3c(c(O)c1C2=O)C[C@@](O)(C(=O)CO)C[C@@H]3O[C@H]1C[C@H](N)[C@H](O)[C@H](C)O1 [doxorubicin]
cell death (U937 cells [4]): 30%
pIC50 (U937 cells [5]; read-out: IC50 of doxorubicin, U937 cells, 24 hours, doxorubicin alone): ~6.85
pIC50 (U937 cells [5]; read-out: IC50 of doxorubicin, U937 cells, 24 hours, with 25 μM of R9-caPep): ~6.96

FITC-RRRRRRRRRCCLGIPEQEY ({FITC}-[dR][dR][dR][dR][dR][dR][dR][dR][dR]CCLGIPEQEY; cysteine pairing not given here) [FITC-R9-caPep, R9-caPep with an N-terminal fluorescein isothiocyanate (FITC) residue]
cellular uptake and nuclear localization (U937 cells [6]): internalized by the cells and was accessible to the nucleus

LGIAEQEY [P129A]
efficacy in MTT assay compared with the other peptides [3]: enhanced efficacy in comparison to wild-type peptides

LGIPEAEY [Q131A]
efficacy in MTT assay compared with the other peptides [3]: enhanced efficacy in comparison to wild-type peptides; also recorded: more effective of these peptides tested

RRRRRRRRR [R9, reference compound]
cytotoxic activity / apoptosis [1]: did not promote apoptosis; also recorded: did not cause an increase apoptosis

RRRRRRRRRCCAGIPEQEY [A1-sub. Peptide]
% cancer cell death [1]: 8 ± 9%

RRRRRRRRRCCLAIPEQEY [A2-sub. Peptide]
% cancer cell death [1]: 47 ± 13%

RRRRRRRRRCCLGAPEQEY [A3-sub. Peptide]
% cancer cell death [1]: 21 ± 12%

RRRRRRRRRCCLGIAEQEY [A4-sub. Peptide]
% cancer cell death [1]: 80 ± 7%

RRRRRRRRRCCLGIPAQEY [A5-sub. Peptide]
% cancer cell death [1]: 45 ± 14%

RRRRRRRRRCCLGIPEAEY [A6-sub. Peptide]
% cancer cell death [1]: 93 ± 7%

RRRRRRRRRCCLGIPEQAY [A7-sub. Peptide]
% cancer cell death [1]: 88 ± 4%

RRRRRRRRRCCLGIPEQEA [A8-sub. Peptide]
% cancer cell death [1]: 7 ± 6%
